Experimental findings from patent US20090054471A1, “PYRIDOPYRAZOLOPYRIMIDINE COMPOUNDS AND THEIR USES AS ANTI-CANCER AND ANTI-DIABETE DRUGS” (Smithkline Beecham Corporation, priority 2005, published 2009) are described below.

Format in all cases: biochemical
One assay addresses T1, Human GSK3b (Homo sapiens, UniProt P49841).
T1 construct: 6-His (N); made in house; host or cells: E. coli
Briefly: GSK3b kinase scintillation proximity assay. As to conditions: 2.5 uM ATP, 11-point dose-response 0.0001 to 10 μM; read-out: GSK3. Here is the method: Human GSK3b was expressed in E. coli with a 6-His tag at the N-terminus. The protein was purified using metal-chelate affinity chromatography. The incorporation of radioactive phosphate into a biotinylated synthetic peptide, Biotin-Ahx-[…](PO3)YR-amide was detected using a scintillation proximity assay (SPA) method as described above. Assay conditions were as follows: 100 mM HEPES, pH 7.2, 10 mM MgCl2, 0.3 mg/mL heparin sulfate, 0.1 mg/mL BSA, 1 mM DTT, 2.5 uM ATP, 0.6 uCi/rxn ^33P-ATP, 1.2 ug/mL GSK-3b protein. The plates are incubated at room temperature for 19 minutes prior to the addition of SPA stop solution.
(§1) Data Calculations—Peptide substrate phosphorylation reactions were performed as described above. The example compound indicated was serially diluted 1 to 3 and added to the reactions to produce an 11-point dose-response curve ranging from 0.0001 to 10 μM.

In assay [1] the target is T2, vascular endothelial growth factor receptor 2 (VEGFR2) (Homo sapiens, UniProt P35968).
T2 construct: The catalytic domains of vascular endothelial growth factor receptor 2 (VEGFR2) was expressed and purified; made in house
T2 sequence (P35968 834-1162 limits assumed): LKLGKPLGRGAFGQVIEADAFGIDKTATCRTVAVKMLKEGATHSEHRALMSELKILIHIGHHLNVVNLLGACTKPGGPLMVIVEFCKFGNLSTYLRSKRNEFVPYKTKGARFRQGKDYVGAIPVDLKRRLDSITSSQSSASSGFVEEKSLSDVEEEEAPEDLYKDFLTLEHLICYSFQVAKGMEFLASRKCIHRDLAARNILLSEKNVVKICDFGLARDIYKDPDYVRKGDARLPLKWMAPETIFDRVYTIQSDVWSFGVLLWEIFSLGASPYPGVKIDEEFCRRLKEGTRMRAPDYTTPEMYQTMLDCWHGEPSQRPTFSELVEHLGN
Briefly: VEGFR2 kinase assay (homogeneous time-resolved fluorescence). The following applies: 75 μM ATP, 11-point dose-response 0.0001 to 10 μM; read-out: VEGF-R. The procedure:
The catalytic domains of vascular endothelial growth factor receptor 2 (VEGFR2) was expressed and purified using methods similar to those described for ErbB-2 and EGFR. Kinase assays were performed as described above with the following modifications: VEGFR2 assays contained 10 nM enzyme, 100 mM HEPES, pH 7.5, 0.1 mg/ml bovine serum albumin, 0.1 mM dithiothreitol, 360 nM peptide A, 75 μM ATP, and 5 mM MgCl2. The reaction was allowed to proceed for 40 min. Product was detected using a homogeneous time-resolved fluorescence procedure (Park, Y.-W., Cummings, R. T., Wu, L., Zheng, S., Cameron, P. M., Woods, A., Zaller, D. M., Marcy, A. I., and Hermes, J. D. (1999) Anal. Biochem. 269, 94-104). Briefly, the reactions were quenched by adding 100 μl of 100 mM HEPES, pH 7.5, 100 mM EDTA, 45 nM streptavidin-linked allophycocyanin (Molecular Probes, Eugene, Oreg.), and 3 nM europium-conjugated anti-phosphotyrosine antibody (Wallac, Turku, Finland). The product was detected using a Victor plate reader (Wallac, Turku, Finland) with a time delay at 665 nm.
as §1

Another assay concerns the target T3, EGFR (Homo sapiens, UniProt P00533).
T3 construct: made in house; host or cells: baculovirus expression system (insect cells)
As to the kind of experiment: EGFR protein tyrosine kinase substrate phosphorylation assay (SPA). As to conditions: 10 μM ATP, 11-point dose-response 0.0001 to 10 μM. Here is the method:
(§2) Compounds of the present invention were tested for EGFR or ErbB-2 protein tyrosine kinase inhibitory activity in substrate phosphorylation assays using enzymes purified from a baculovirus expression system.
(§3) The method measures the ability of the isolated enzyme to catalyse the transfer of the γ-phosphate from ATP onto tyrosine residues in a biotinylated synthetic peptide (biotin-Ahx-[…]-amide). Reactions were performed in 96 or 384 well polystyrene plates in a final volume of 20 or 45 μl. […] ATP per reaction, 2 μM peptide substrate, and 1 mM dithiothreitol. Reactions were initiated by adding 1 pmol (20 nM) per reaction of the indicated enzyme.
as §1

The target of another assay is T4, ErbB-2 (Homo sapiens, UniProt P04626).
T4 construct: made in house; host or cells: baculovirus expression system (insect cells)
T4 sequence (P04626 676-1255 limits assumed): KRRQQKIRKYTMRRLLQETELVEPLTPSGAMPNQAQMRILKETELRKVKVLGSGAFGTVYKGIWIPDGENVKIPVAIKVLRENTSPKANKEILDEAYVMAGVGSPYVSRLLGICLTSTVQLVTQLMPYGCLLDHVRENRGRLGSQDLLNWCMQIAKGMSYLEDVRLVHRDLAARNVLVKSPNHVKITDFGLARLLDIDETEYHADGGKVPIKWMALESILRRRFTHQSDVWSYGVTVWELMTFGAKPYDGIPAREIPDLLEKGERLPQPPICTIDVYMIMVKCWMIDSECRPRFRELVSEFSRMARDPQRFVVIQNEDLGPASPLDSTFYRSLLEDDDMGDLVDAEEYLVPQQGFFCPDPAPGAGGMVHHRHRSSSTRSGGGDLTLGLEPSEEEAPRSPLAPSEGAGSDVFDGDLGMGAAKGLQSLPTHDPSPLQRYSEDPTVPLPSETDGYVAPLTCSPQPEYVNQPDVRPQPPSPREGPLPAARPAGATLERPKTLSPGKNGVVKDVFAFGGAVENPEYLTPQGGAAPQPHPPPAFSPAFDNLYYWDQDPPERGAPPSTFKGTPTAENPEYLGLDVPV
Briefly: ErbB-2 protein tyrosine kinase substrate phosphorylation assay (SPA). As to conditions: 10 μM ATP, 11-point dose-response 0.0001 to 10 μM; read-out: ErbB2. The procedure: as §2, §3, §1

T3 sequence (P00533 669-1210 limits assumed): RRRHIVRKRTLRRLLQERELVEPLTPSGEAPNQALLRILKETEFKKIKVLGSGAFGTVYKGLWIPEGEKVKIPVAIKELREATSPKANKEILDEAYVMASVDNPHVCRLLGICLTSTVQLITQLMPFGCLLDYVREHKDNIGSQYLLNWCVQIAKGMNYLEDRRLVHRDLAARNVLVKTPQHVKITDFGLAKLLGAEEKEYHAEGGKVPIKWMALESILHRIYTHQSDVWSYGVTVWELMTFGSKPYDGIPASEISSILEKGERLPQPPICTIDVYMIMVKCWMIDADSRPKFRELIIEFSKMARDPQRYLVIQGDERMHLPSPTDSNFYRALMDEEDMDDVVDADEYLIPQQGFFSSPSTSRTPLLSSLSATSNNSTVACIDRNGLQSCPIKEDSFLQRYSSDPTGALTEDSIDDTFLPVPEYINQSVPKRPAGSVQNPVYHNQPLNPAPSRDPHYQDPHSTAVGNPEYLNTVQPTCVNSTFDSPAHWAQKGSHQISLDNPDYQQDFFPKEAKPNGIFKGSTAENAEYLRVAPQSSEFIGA
T1 sequence (P49841 whole entry): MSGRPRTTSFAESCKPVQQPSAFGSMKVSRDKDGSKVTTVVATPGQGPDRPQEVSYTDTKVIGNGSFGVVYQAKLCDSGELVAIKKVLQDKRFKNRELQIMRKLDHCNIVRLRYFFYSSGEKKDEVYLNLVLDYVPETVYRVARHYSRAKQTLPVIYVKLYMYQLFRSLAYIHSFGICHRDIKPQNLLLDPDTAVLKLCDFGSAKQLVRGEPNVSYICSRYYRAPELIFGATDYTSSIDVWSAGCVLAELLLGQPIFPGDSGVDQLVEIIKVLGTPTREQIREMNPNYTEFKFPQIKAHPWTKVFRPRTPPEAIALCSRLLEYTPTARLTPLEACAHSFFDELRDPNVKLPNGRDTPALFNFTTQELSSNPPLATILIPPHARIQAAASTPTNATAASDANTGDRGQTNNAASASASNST

`Nc1ncnc2nn3ccccc3c12` [Example 1, pyrido[1′,2′:1,5]pyrazolo[3,4-d]pyrimidin-4-amine]: the IC50 (at Human GSK3b; in assay [1]; on EGFR; on ErbB-2) was over 10 µM each time.

Turning to `Fc1ccc(Nc2ncnc3nn4ccccc4c23)cc1Cl` [Example 4, N-(3-chloro-4-fluorophenyl)pyrido[1′,2′:1,5]pyrazolo[3,4-d]pyrimidin-4-amine], the IC50 (on Human GSK3b; in assay [1]) was over 10 µM in each case.

Turning to `Fc1cccc(COc2ccc(Nc3ncnc4nn5ccccc5c34)cc2Cl)c1` [Example 5, N-(3-chloro-4-{[(3-fluorophenyl)methyl]oxy}phenyl)-pyrido[1′,2′:1,5]pyrazolo[3,4-d]pyrimidin-4-amine], the IC50 (at Human GSK3b; in assay [1]) was over 10 µM throughout.

With `Clc1cc(Nc2ncnc3nn4ccccc4c23)ccc1OCc1ccccc1` [Example 6, N-{3-chloro-4-[(phenylmethyl)oxy]phenyl}pyrido[1′,2′:1,5]pyrazolo[3,4-d]pyrimidin-4-amine], the IC50 on Human GSK3b was over 10 µM; in assay [1], over 10 µM; against EGFR, under 0.1 µM; on ErbB-2 it was 0.1 to 1 µM.

With `c1ccc(Cc2nc3ccc(Nc4ncnc5nn6ccccc6c45)cc3[nH]2)cc1` [Example 7, N-[2-(phenylmethyl)-1H-benzimidazol-5-yl]pyrido[1′,2′:1,5]pyrazolo-[3,4-d]pyrimidin-4-amine], the IC50 at Human GSK3b was over 10 µM; in assay [1], over 10 µM; at EGFR, 1 to 10 µM; at ErbB-2 it was 1 to 10 µM.

Regarding `N#Cc1cccc(NC(=O)Nc2ncnc3nn4ccccc4c23)c1` [Example 8, N-(3-cyanophenyl)-N′-pyrido[1′,2′:1,5]pyrazolo[3,4-d]pyrimidin-4-ylurea], the IC50 on Human GSK3b was 0.1 to 1 µM; in assay [1], 0.1 to 1 µM; against EGFR, over 10 µM; at ErbB-2 it was over 10 µM.

For `O=C(Nc1cccc(C(F)(F)F)c1)Nc1ncnc2nn3ccccc3c12` [Example 9, N-pyrido[1′,2′:1,5]pyrazolo[3,4-d]pyrimidin-4-yl-N′-[3-(trifluoromethyl)phenyl]urea], the IC50 is 0.1 to 1 µM on Human GSK3b, 0.1 to 1 µM in assay [1], over 10 µM against EGFR and over 10 µM at ErbB-2.

On to `O=C(Nc1cccc([N+](=O)[O-])c1)Nc1ncnc2nn3ccccc3c12` [Example 10, N-(3-nitrophenyl)-N′-pyrido[1′,2′:1,5]pyrazolo[3,4-d]pyrimidin-4-ylurea], for which the IC50 on Human GSK3b was 0.1 to 1 µM; in assay [1], over 10 µM; against EGFR, over 10 µM; at ErbB-2 it was over 10 µM.

With `O=C(Nc1ccc(Br)cc1)Nc1ncnc2nn3ccccc3c12` [Example 11, N-(4-bromophenyl)-N′-pyrido[1′,2′:1,5]pyrazolo[3,4-d]pyrimidin-4-ylurea], the IC50 was 1 to 10 µM at Human GSK3b, 1 to 10 µM in assay [1], over 10 µM at EGFR and over 10 µM at ErbB-2.

On to `O=C(Nc1ccc(C(F)(F)F)cc1)Nc1ncnc2nn3ccccc3c12` [Example 12, N-pyrido[1′,2′:1,5]pyrazolo[3,4-d]pyrimidin-4-yl-N′-[4-(trifluoromethyl)phenyl]urea], for which the IC50 at Human GSK3b is 1 to 10 µM; in assay [1], 1 to 10 µM; on EGFR, over 10 µM; at ErbB-2, over 10 µM.

`O=C(Nc1ccc(F)cc1)Nc1ncnc2nn3ccccc3c12` [Example 13, N-(4-fluorophenyl)-N′-pyrido[1′,2′:1,5]pyrazolo[3,4-d]pyrimidin-4-ylurea]: the IC50 on Human GSK3b is over 10 µM; in assay [1], 0.1 to 1 µM; against EGFR, over 10 µM; on ErbB-2, over 10 µM.

As to `C(=NNc1ncnc2nn3ccccc3c12)c1c[nH]c2ccccc12` [Example 14, 1H-indole-3-carbaldehyde pyrido[1′,2′:1,5]pyrazolo[3,4-d]pyrimidin-4-ylhydrazone], the IC50 at Human GSK3b is 1 to 10 µM; in assay [1] it was over 10 µM; against EGFR, 1 to 10 µM; on ErbB-2, over 10 µM.
